The values that follow come from patent US20160287536A1, “Composition” (THE UNIVERSITY OF NOTTINGHAM, priority 2013, published 2016).

Where “and” joins values, the source holds several entries; their conditions need not be identical. Identical values can stand only once.

One experiment has as its system vascular preparations. The conditions noted are these: 100 μM; cited from earlier work.
The next experiment deals with nitric oxide synthase. The conditions noted are these: 100 μM; cited from earlier work.
For experiment [1], the system named is sheep isolated rectal artery. Put plainly: Wire myography, sheep isolated rectal artery (SRA). The conditions noted are these: for Kb: Ovis aries. The format is cell-based. As for the experimental part: (§1) Sheep mesenteric tissue, from the distal sigmoid colon to the anus, was obtained from a local abattoir. The sheep tissue was delivered in a dry bag and stored at 4° C. until dissected. The bundle of sheep rectal vessels was dissected from its mesentery within four hours of arrival from the abattoir. The vascular bundle was then kept in the pre-oxygenated Krebs-Henseleit buffer solution at 4° C. until used (on the same day as a preferential method or on the following day after storage overnight). No experiments were conducted on tissue stored for more than 24 hours after dissection. The Krebs solution consisted of 118.4 mM NaCl, 4.7 mM KCl, 1.2 mM MgSO4, 1.2 mM KH2PO4, 1.25 mM CaCl2, 24.9 mM NaHCO3, and 11.1 mM glucose.
(§2) Before setting a wire myography experiment, the remaining loose connective tissue was meticulously removed from the rectal vessels. The internal diameter of sheep isolated rectal artery and vein was 450-650 μm and 500-1000 μm, respectively. Each 5-mm ring segment of the ‘clean’ vessels was then suspended between two 200-μm wire supports in an organ bath containing 20 ml Krebs-Henseleit buffer solution. The upper supporting wire was attached to an isometric force transducer, while the lower wire was fixed steadily to a clamped glass rod. The bath solution was maintained at 37° C., and continuously gassed with 95% O2 and 5% CO2. Isometric tension was continuously recorded using a PowerLab 4/25 via QUAD Bridge amplifier (ADInstruments, Inc, Australia).
(§3) After a 10-minute equilibration period, an initial tension of 8 gram weight (g wt) was gradually applied for an arterial segment and left to relax for 30 minutes. The final tension of SRA varied between 1.0 g wt and 2.8 g wt. For a venous segment, an initial tension of 1 g wt was applied and, 10 minutes later, the resting tension was finally re-adjusted to reach a tension of 0.5 g wt. Then the vein was left to relax for further 20 minutes. The final tension of SRV ranged from 0.08 to 0.25 g wt. Once the vascular segments were fully settled, the tissues were tested for contractile activity with 60 mM KCl on three occasions. The vascular contraction was allowed to reach maximum, which generally took about 1-4 minutes. Each KCl challenge was followed by two washouts of 37° C. Krebs solution and the tissues were allowed to rest for 20 minutes between the challenges. The maximum contraction (tension) produced by the third administration of 60 mM KCl was used as a reference contraction to which subsequent responses were compared. After the final (3rd) KCl challenge, the tissues were washed and left for 60 minutes before α-adrenoceptor agonist was administrated. To construct an agonist concentration-response curves (CRC), 0.3-0.4 log 10 increments of agonist solution was added e.g. at the agonist concentration of 100 nM, 200 nM, 500 nM, 1 μM, 2 μM, 5 μM, and so on. Each response was allowed to reach equilibrium or plateau before the next dose of agonist was added. The maximal response to the agonist was considered when no further increase in response occurred upon the addition of two or more consecutive doses of agonist.
(§4) In the case of the noradrenaline study, 10 μM cocaine was added into the organ bath 40 minutes prior to the administration of noradrenaline for inhibiting the uptake of noradrenaline by neural tissue within the vascular wall (re-uptake 1) (Westfall & Westfall, 2006 In Goodman & Gilman's the Pharmacological Basis of Therapeutics. eds Brunton, L. L., Lazo, J. S. & Paker, K. L. pp. 137-181. New York: McGraw Hill). Regarding KCl-induced vasoconstriction, the CRC was generated by the contractile response to 6 mM increments of KCl solution, starting from 0 mM to 60 mM.
(§5) Consecutive CRCs were generated to each agonist, separated by 60 minutes, and if there was no difference in the maximum response (Emax) and pEC50 (defined as the negative logarithm of the concentration required to produce 50% of the maximum response) then a paired CRC protocol was used throughout. […]

Experiment [2] deals with sheep isolated rectal vein. Put plainly: Wire myography, sheep isolated rectal vein (SRV). In kind it is cell-based. The settings on record: SRV. As for the experimental part: as §1, §2, §3, §4, §5
For experiment [3], the system named is human isolated mesenteric artery. Put plainly: Wire myography, human isolated mesenteric (colonic/rectal) artery (HMA). In kind it is cell-based. An excerpt: (§6) After obtaining approval from the local research ethics committee (Reference number: 05/Q2403/171) and having written consent from the patient, human mesenteric (colonic or rectal) vessels were collected from patients who underwent colectomy and/or proctectomy at the Division of Gastrointestinal Surgery, Queen's Medical Centre, University of Nottingham, UK, between August 2009 and March 2010. Patients with a history of previous abdominal/pelvic radiotherapy, and patients with endocrine tumours or concomitant intraabdominal infection were excluded from this study. In an operating room, the mesentery containing the required segment of blood vessels was dissected from the whole surgical specimen immediately after it was removed from a patient. The tissue was then kept in a 100-ml pot containing pre-oxygenated Krebs-Henseleit buffer solution maintained at 4° C. until used. No experiments were conducted on tissue stored for more than 12 hours after dissection. The Krebs solution consisted of 118.4 mM NaCl, 4.7 mM KCl, 1.2 mM MgSO4, 1.2 mM KH2PO4, 1.25 mM CaCl2, 24.9 mM NaHCO3, and 11.1 mM glucose.
Before setting a wire myography experiment, human mesenteric (colonic/rectal) vessels were meticulously dissected from the surrounding mesenteric fatty tissue. The ‘clean’ vessel was then divided into 5-mm ring segments. […]

Experiment [4] relates to human isolated mesenteric vein. Put plainly: Wire myography, human isolated mesenteric (colonic/rectal) vein (HMV). The format is cell-based.
Description: as §6
Before setting a wire myography experiment, human mesenteric (colonic/rectal) vessels were meticulously dissected from the surrounding mesenteric fatty tissue. The ‘clean’ vessel was then divided into 5-mm ring segments. Generally, the internal diameter of vessels ranged between 400-1000 μm for human mesenteric artery (HMA) and 500-1200 μm for human mesenteric vein (HMV). Each 5-mm ring segment was suspended between two 200-μm wire supports in an organ bath containing 20 ml Krebs-Henseleit buffer solution. The contractile study of human mesenteric vessels was then set in the similar manner of the previous study on sheep isolated rectal vessels.
After a 20-minute equilibration period, an initial resting tension of 8 and 1 gram weight (g wt) was gradually applied to arterial and venous ring segments, respectively, and left to relax for 30 minutes. The final resting tension varied between 1.8 g wt and 3.2 g wt for HMA, and between 0.07 g wt and 0.35 g wt for HMV. Once the vascular segments were fully settled, they were tested for contractile activity with 60 mM KCl three occasions, and an agonist concentration-response curves (CRC) was then reconstructed after the vessels were left to equilibrate for 60 minutes as previously described for sheep rectal vessels. […] In the case of noradrenaline study, 10 μM cocaine was added into the organ bath 40 minutes prior to the administration of noradrenaline for inhibiting the uptake of noradrenaline by neural tissue within the vascular wall (re-uptake 1) (Westfall & Westfall, 2006 In Goodman & Gilman's the Pharmacological Basis of Therapeutics. eds Brunton, L. L., Lazo, J. S. & Paker, K. L. pp. 137-181. New York: McGraw Hill).
Although it appeared that the CRCs of several vasoconstrictors were reproducible (no significant change in maximum response and agonist potency) in human mesenteric vessels, a single CRC, paired segment approach was adopted throughout the study of human blood vessels. This was due to a desire to limit the time of tissue storage and the ease of tissue preparation. The single CRC, paired segment approach involves the generation of only one agonist CRC per tissue. The maximum response (Emax) and pEC50 (defined as the negative logarithm of the concentration required to produce 50% of the maximum response) of each vascular segment were compared to those of other vascular segments (adjacent segments from the same patient, or other segments from different patients).
If the vessel had spontaneous and periodic contraction after the administration of S(−)-BayK8644—which occurred in 70% of HMA and 80% of HMV, the effect of agonist would be considered when there was an increase in the frequency of contraction as well as a rise in the baseline of vascular tone.
The selective α1-adrenoceptor antagonist prazosin and selective α2-adrenoceptor antagonist RX811059 were used in this study. […]

In experiment [5] the test system is porcine isolated tail artery. As for the experimental part: U46619 was added to produce a contraction equivalent to 60% of KCl followed by sufficient to forskolin to causes a relaxation back to baseline. Cumulative concentration response curves to brimondine and phenylephrine were elicited in the presence and absence of the combination of U4/For. Responses have been expressed a percent of the contraction to 60 mM KCl and represent the mean of 5-6 separate observations.

`CN(C)C(N)=NCCC[C@H](N)C(=O)O` [ADMA, Asymmetric dimethyl arginine]: in the experiment with vascular preparations, the “effect on vasoconstrictor responses to phenylephrine” value is listed as “enhance the vasoconstrictor responses to phenylephrine”. In addition, the “inhibition of nitric oxide synthase” value in the experiment on nitric oxide synthase was “inhibit nitric oxide synthase”.

For the molecule `COC(=O)C1=C(C)NC(C)=C([N+](=O)[O-])[C@H]1c1ccccc1C(F)(F)F` [S(−)-BayK8644, (4S)-1,4-dihydro-2,6-dimethyl-5-nitro-4-[2-(trifluoromethyl)-phenyl]-3-pyridine carboxylic acid methyl ester], the “effect on 5-HT-induced contraction” value in experiment [1] (SRA and SRV, 1 μM) is “no effect”. Also, the “effect on potency of KCl” value in experiment [1] (SRA, 1 μM) is “significantly increased the potency”. Moreover, the “observations with spontaneous contraction” value in experiment [1] (SRA, 1 μM) amounted to 6%. For the same molecule, the “effect on potency of noradrenaline” value in experiment [2] (1 μM) was “significantly increased the potency”. The “vessels with spontaneous phasic contraction” value is 70% and 71% in experiment [3] (1 μM); 80% and 83% in experiment [4] (1 μM).

Take `Brc1c(NC2=NCCN2)ccc2nccnc12` [UK14304, brimonidine]: in experiment [2], the “contractile response” value is listed as “concentration-dependent contractions”. In addition, in experiment [2] (the rest <10% of the response to 60 mM KCl), the “veins with concentration-dependent contraction” value is recorded as 6 out of 12. For the same molecule, the “contractile responses in the presence of the combination of U46619 and forskolin” value in experiment [5] is “enhanced”.

Turning to `COc1cc2nc(N3CCN(C(=O)c4ccco4)CC3)nc(N)c2cc1OC` [prazosin], the Kb in experiment [1] (SRA and SRV, contraction to noradrenaline (summary)) is 158 to 398 pM; in experiment [1] (SRA, 2 nM prazosin against noradrenaline-induced contraction), 398 pM; in experiment [2] (Ovis aries, 10 nM prazosin / 30 nM RX811059 against noradrenaline), 170 pM; in experiment [3] (Homo sapiens, noradrenaline-induced contractions) it was 316 pM. Also, the “effect on the noradrenaline CRC” value in experiment [1] (SRA, prazosin 0.4-10 nM, RX811059 30 nM) was “concentration-dependent, parallel rightward shift”. Moreover, the “rightward shift of the CRC for noradrenaline” value in experiment [2] (prazosin 10 nM, RX811059 30 nM) is 70 fold. In experiment [4] (10 nM prazosin, 30 nM RX811059), the “effect on potency of noradrenaline” value is given as “significantly reduced the potency of noradrenaline”.
